Reference: PMC3642328, “Ataxia Telangiectasia-Mutated (ATM) Kinase Activity Is Regulated by ATP-driven Conformational Changes in the Mre11/Rad50/Nbs1 (MRN) Complex*^([image sbox.jpg])” (The Journal of Biological Chemistry, 2013)

Columns and labels:
Type in all cases: biochemical
[1] = biological target: T1, MRN (nucleotide site of Rad50) (Homo sapiens, UniProt Q92878); assay: ATM kinase assay with analog-sensitive ATM Y2755A; conditions: N6-furfuryl-ATP as ATM nucleotide; MRN/DNA; AMP-PNP supports MRN activation of ATM
T1 construct: full-length Mre11/Rad50/Nbs1 coexpressed in Sf21 insect cells, purified; with Double-strand break repair protein MRE11; Nibrin
T1 sequence (Q92878 1-1312): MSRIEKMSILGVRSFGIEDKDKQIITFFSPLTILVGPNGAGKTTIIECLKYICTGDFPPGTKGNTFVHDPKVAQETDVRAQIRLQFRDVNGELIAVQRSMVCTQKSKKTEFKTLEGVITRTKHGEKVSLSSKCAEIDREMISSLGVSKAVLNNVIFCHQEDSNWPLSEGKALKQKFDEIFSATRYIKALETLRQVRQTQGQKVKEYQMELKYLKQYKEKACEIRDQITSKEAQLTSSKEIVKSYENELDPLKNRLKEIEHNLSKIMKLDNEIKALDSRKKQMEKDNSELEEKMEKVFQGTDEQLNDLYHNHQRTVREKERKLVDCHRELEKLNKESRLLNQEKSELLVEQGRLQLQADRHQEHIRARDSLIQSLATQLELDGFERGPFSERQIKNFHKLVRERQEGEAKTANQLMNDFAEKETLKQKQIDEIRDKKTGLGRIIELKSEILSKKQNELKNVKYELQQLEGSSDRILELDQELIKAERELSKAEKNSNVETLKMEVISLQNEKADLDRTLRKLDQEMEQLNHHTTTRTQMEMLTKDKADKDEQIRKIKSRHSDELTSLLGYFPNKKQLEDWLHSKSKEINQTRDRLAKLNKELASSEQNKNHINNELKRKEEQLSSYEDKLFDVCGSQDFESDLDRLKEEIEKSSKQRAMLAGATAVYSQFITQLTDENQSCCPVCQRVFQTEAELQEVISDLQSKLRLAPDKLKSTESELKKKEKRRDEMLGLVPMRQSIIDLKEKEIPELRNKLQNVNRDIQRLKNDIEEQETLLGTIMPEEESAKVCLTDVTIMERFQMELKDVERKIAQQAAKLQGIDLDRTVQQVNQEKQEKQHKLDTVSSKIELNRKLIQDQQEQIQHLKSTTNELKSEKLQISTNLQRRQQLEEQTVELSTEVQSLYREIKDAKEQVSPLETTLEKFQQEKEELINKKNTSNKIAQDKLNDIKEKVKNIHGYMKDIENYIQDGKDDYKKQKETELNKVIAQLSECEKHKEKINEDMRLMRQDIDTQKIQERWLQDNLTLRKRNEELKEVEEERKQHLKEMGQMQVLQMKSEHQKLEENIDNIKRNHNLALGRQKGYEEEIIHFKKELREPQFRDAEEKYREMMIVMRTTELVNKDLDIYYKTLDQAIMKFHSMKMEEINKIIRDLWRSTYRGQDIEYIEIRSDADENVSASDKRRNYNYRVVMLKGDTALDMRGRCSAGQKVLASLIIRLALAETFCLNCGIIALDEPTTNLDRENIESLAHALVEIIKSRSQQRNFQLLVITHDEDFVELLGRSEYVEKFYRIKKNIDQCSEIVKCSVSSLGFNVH
T1 sequence (P49959 2-708 partner): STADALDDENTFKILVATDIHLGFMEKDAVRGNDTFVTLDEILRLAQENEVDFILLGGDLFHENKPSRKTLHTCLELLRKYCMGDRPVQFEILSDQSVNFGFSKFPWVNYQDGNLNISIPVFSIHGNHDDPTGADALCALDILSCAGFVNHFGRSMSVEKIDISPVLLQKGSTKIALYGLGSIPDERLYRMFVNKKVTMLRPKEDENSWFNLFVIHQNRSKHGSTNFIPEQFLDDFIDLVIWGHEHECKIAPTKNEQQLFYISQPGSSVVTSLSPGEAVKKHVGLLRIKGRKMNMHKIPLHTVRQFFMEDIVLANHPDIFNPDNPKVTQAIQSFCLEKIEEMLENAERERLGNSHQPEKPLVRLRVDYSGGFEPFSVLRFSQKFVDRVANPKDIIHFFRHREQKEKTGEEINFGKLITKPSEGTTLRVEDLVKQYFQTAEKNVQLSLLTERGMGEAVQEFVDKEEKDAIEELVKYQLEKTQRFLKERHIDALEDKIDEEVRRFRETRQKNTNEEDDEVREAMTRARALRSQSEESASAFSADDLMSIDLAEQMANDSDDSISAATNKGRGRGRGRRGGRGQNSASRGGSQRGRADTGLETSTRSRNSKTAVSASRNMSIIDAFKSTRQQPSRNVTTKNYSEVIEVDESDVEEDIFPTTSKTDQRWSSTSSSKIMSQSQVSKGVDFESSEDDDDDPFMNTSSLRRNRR
T1 sequence (O60934 1-754 partner): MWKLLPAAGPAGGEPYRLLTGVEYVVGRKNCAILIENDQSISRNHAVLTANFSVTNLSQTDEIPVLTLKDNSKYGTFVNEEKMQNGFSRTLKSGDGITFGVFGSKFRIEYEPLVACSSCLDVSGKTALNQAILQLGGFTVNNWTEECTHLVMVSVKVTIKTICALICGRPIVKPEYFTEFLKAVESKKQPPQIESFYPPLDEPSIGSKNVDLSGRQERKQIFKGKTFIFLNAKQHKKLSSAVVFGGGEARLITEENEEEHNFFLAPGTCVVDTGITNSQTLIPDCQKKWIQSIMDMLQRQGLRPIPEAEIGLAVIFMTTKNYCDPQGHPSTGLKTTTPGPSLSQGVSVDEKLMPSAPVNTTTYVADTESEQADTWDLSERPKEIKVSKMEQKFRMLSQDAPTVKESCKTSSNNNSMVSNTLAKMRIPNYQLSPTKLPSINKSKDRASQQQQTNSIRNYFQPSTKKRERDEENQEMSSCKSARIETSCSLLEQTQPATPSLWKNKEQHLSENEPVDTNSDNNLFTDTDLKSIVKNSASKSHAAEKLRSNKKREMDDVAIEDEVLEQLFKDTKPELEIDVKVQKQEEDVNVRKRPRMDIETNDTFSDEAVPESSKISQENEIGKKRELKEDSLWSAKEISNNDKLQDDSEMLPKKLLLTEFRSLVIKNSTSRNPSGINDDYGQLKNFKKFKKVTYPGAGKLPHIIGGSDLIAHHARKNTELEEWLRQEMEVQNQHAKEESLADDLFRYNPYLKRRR

ATM = biological target: T2, ATM (Homo sapiens, UniProt Q13315, Y2755A); assay: kinase assay, GST-p53 Ser-15 phosphorylation, Western blot; conditions: H2O2-activated ATM without MRN; analog 1 mM; pH 7.5, 5 mM Mg, 30 C
T2 construct: full-length, Flag-tagged and HA-tagged, transiently expressed in human 293T cells, purified as dimer
T2 sequence (Q13315 2-3056 Y2755A): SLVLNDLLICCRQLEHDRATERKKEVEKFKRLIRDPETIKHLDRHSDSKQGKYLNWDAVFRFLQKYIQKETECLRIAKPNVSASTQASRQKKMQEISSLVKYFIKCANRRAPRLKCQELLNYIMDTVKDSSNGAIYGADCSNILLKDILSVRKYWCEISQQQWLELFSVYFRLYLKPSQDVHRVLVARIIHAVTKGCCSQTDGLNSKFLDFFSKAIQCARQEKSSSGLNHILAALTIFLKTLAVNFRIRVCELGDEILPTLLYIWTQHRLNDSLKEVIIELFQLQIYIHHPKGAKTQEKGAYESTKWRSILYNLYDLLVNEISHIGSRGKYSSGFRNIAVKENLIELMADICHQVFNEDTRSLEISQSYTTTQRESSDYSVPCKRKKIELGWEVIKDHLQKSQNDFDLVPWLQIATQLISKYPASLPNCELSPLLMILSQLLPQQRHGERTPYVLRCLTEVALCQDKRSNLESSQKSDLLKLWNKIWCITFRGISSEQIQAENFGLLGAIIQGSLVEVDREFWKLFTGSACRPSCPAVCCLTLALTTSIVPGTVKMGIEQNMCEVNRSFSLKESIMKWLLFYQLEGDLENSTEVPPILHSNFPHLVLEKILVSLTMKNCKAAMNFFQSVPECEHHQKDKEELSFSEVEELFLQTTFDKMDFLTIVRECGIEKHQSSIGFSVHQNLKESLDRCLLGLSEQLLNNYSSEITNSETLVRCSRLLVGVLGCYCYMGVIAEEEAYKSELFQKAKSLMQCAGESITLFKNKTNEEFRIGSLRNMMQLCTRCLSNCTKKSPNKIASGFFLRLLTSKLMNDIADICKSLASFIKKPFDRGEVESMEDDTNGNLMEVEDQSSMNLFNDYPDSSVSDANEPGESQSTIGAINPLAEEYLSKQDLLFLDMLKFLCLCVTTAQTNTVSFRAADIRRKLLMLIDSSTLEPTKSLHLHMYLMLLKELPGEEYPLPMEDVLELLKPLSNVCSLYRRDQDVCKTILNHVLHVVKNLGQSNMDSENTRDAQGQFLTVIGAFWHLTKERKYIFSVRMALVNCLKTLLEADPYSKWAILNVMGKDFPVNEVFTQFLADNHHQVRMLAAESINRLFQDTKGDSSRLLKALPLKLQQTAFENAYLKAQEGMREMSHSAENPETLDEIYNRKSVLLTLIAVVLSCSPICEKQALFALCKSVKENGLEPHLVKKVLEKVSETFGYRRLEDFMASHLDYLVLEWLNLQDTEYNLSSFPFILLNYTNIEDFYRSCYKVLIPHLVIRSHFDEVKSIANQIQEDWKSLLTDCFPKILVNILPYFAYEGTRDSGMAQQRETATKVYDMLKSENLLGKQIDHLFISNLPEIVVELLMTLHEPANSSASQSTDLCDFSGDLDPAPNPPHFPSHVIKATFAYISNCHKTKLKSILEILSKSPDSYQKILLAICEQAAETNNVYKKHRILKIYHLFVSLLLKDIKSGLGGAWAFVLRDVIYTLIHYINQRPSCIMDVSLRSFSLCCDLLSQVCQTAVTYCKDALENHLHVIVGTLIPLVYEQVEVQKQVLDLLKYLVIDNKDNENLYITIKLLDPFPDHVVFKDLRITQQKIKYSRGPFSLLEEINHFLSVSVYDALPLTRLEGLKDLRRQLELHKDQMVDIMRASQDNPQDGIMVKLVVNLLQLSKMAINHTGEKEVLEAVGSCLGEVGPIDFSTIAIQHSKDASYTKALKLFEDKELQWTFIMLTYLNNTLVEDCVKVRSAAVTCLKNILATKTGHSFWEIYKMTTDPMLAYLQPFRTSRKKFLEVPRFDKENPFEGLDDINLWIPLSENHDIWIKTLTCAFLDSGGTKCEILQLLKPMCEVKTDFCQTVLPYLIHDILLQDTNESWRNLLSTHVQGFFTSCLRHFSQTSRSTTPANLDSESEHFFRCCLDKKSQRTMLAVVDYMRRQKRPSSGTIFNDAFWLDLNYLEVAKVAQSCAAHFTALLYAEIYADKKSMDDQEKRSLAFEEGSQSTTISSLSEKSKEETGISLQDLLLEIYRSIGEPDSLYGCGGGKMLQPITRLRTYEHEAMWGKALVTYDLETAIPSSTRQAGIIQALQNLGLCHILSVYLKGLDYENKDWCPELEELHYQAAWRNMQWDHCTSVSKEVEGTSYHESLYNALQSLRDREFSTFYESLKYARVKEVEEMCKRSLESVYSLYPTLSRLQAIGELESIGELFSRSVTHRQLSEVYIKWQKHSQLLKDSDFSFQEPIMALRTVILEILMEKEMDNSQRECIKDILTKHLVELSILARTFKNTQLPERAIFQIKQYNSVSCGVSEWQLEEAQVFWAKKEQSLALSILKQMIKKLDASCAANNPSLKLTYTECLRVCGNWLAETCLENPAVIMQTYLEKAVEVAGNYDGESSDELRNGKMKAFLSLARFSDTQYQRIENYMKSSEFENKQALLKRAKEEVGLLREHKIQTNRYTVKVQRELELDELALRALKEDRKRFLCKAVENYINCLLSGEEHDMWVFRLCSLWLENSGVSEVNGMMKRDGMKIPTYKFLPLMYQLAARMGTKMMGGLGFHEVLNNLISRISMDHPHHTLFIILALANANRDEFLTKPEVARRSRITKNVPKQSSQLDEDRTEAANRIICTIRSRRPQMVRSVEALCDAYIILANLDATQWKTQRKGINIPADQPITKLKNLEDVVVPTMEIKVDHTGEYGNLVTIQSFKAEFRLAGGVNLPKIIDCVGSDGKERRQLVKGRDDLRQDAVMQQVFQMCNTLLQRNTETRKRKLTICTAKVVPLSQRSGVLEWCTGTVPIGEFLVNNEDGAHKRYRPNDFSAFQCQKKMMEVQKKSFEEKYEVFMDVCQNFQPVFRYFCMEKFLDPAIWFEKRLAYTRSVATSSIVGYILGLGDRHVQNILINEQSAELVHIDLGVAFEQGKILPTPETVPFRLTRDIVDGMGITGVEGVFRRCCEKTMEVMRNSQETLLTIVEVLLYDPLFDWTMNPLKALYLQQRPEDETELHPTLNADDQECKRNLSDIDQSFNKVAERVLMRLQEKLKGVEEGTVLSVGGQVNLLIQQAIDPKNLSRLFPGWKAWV

[2] = biological target: T1, MRN (nucleotide site of Rad50); assay: ATM kinase assay, inhibition of MRN/DNA-dependent activation; conditions: wild-type ATM, ATP present; pH 7.5, 5 mM Mg, 30 C; site (Rad50 ATP pocket) inferred

SMILES	ATM kinase assay with analog-sensitive ATM Y2755A [1]	kinase assay, GST-p53 Ser-15 phosphorylation, Western blot (ATM)	ATM kinase assay, inhibition of MRN/DNA-dependent activation [2]
Nc1ncnc2c1ncn2[C@@H]1O[C@H](COP(=O)(O)OP(=O)(O)NP(=O)(O)O)[C@@H](O)[C@H]1O [AMP-PNP, adenosine 5′-(β,γ-imino)triphosphate]	Y2755A ATM phosphorylated p53 in the presence of MRN/DNA, N6-(furfuryl)-ATP, and AMP-PNP		
CCCC(C)Nc1ncnc2c1ncn2[C@@H]1O[C@H](COP(=O)(O)OP(=O)(O)OP(=O)(O)O)[C@@H](O)[C@H]1O (stereo partly drawn) [N6-(1-methylbutyl)-ATP, N6-(1-methylbutyl)adenosine-5′-O-triphosphate]		N6-(1-methylbutyl)-ATP was utilized by the Y2755A mutant ATM	N6-(1-methylbutyl)-ATP inhibited the activation of wild-type ATM by MRN/DNA
